Data published in article PMC11169557, “The Goldilocks paradigm: comparing classical machine learning, large language models, and few-shot learning for drug discovery applications” (Communications Chemistry, 2024).
Structures can show the parent of a compound that is named as a salt.

Molecular target: MARK1 (Homo sapiens, UniProt Q9P0L2)
Assay: MARK1 inhibition, IC50 determination (dose-response) using Z'-LYTE assay
Format: biochemical
Details: for IC50: Z'-LYTE assay, non-linear regression (3-parameters); for Active (Measured): hits of the initial screen followed up with dose-response curves, 1 = true MARK1 inhibitor; for MARK1 inhibitor (result in words): out of the 13 tested compounds

Sequence of MARK1 (Q9P0L2 whole entry): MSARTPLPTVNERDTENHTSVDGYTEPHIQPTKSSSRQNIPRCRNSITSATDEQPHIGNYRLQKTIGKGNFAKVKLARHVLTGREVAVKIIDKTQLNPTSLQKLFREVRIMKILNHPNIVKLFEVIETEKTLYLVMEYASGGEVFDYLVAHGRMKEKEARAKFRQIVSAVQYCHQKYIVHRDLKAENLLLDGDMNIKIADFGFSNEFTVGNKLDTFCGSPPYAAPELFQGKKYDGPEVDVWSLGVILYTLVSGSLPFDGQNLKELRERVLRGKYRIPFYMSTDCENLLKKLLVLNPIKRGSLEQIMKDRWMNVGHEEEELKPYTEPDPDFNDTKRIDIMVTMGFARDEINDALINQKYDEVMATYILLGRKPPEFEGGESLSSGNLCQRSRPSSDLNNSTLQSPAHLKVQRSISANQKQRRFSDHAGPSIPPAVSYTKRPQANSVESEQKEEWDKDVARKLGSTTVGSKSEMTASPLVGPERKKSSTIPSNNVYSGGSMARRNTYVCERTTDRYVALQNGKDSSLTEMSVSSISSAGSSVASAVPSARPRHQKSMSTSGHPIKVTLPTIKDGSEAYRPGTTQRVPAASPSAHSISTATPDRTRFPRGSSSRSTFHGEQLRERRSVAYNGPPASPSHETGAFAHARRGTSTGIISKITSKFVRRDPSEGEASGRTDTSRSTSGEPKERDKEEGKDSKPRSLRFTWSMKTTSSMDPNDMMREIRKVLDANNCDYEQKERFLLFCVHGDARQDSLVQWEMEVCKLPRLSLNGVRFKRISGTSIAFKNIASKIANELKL

IC50 | Active (Measured) | MARK1 inhibitor (result in words) | Compound
185 nM | 1 | true novel MARK1 active inhibitors | O=C(Nc1c[nH]nc1-c1nc2ccc(CN3CCOCC3)cc2[nH]1)NC1CC1 [AT9283]
166 nM | 1 | true novel MARK1 active inhibitors | CCS(=O)(=O)N1CC(CC#N)(n2cc(-c3ncnc4[nH]ccc34)cn2)C1 [Baricitinib]
– | 0 | – | COc1cc(Nc2c(C#N)cnc3cc(OCCCN4CCN(C)CC4)c(OC)cc23)c(Cl)cc1Cl [Bosutinib]
– | 0 | – | Cc1cc(Nc2ncc(Cl)c(Nc3ccccc3S(=O)(=O)C(C)C)n2)c(OC(C)C)cc1C1CCNCC1 [Ceritinib]
– | 0 | – | C[C@@H](Oc1cc(-c2cnn(C3CCNCC3)c2)cnc1N)c1c(Cl)ccc(F)c1Cl [Crizotinib]
– | 0 | – | CC(C)(C)NC[C@H](O)COc1cccc2c1CCCC2=O.Cl [Levobunolol (hydrochloride)]
219 nM | 1 | true novel MARK1 active inhibitors | CN1CCN(c2ccc(Nc3ncc4cc(C#N)c(=O)n(C5CCCC5)c4n3)cc2)CC1 [ON123300]
– | 1 | true novel MARK1 active inhibitors | C[C@@H]1CCN(C(=O)CC#N)C[C@@H]1N(C)c1ncnc2[nH]ccc12 [Tofacitinib citrate]
327 nM | 1 | true novel MARK1 active inhibitors | CC[C@@H]1CN(C(=O)NCC(F)(F)F)C[C@@H]1c1cnc2cnc3[nH]ccc3n12 [Upadacitinib]
– | 0 | – | COc1cc(O)c2c(c1)oc(=O)c1c3cc(O)c(O)cc3oc21 [Wedelolactone]
– | 0 | – | CCCCCCCCc1ccc(CCC(N)(CO)CO)cc1 [fingolimod]

Compound | IC50 | Active (Measured) | MARK1 inhibitor (result in words)
Cc1cc(C(C#N)c2ccc(Cl)cc2)c(Cl)cc1NC(=O)c1cc(I)cc(I)c1O (stereo not drawn) [Closantel] | – | 0 | –
